Calls of active or inactive are those of the source.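 How the source made its calls: active means cell-killing curve crosses a set limit at a concentration no more than twice the top valid dose; inconclusive means flat curve with a 30 to 70% loss, or a poor fit; inactive means signal rising instead of falling, and the rest.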
Each compound was assayed on TC71 Ewing sarcoma viability, CellTiter-Glo ATP, 72 h (assay: cytotoxicity in EWS/Fli1-dependent TC71 cells – cell-based, luminescence, cherry-picked samples, retest, confirmation (AID 720570)).
In the case of `COC(=O)C[C@@H]1CC[C@@H]2[C@H](COc3ccc(NC(=O)c4ccc(C(F)(F)F)cc4)cc3C(=O)N2C)O1`, the AC35 is reported as 9.91 µM.
`COc1ccc(S(=O)(=O)N2CC[C@@H]3[C@H](CO)Nc4ccc(-c5ccc(C#N)cc5)cc4[C@@H]32)cc1` showed an AC35 of 4.88 µM.
`C[C@@H]1CCCCO[C@H](CN(C)Cc2ccc(C(=O)Nc3ccccc3N)cc2)[C@@H](C)CN([C@H](C)CO)C(=O)c2cc(NS(=O)(=O)c3ccc(F)cc3)ccc2O1` was tested, and the AC35 was 12.9 µM.
Work on `O=C(N/N=C/c1cnc(N2CCCCC2)s1)c1ccc(C(F)(F)F)cc1` yielded an AC35 of 20.9 µM.
`Oc1c(Cl)cc(Cl)c(Cl)c1Cc1c(O)c(Cl)cc(Cl)c1Cl` was tested, and the AC35 was 3.22 µM.
Compound `Nc1ccn([C@@H]2O[C@H](CO)[C@@H](O)C2O)c(=O)n1` (some centres not stated) has an AC35 of 1.22 µM.
`O=C(Nc1cccc(S(=O)(=O)N2CCCC2)c1)c1ccc(Cl)nc1` showed an AC35 of 14 µM.
For `CC1(C)N=C(N)N=C(N)N1c1ccc(CCCCc2ccccc2)cc1`, the AC35 was 1.39 µM.
With `Cc1ccc(S(=O)(=O)N(C)C[C@@H]2Oc3ccc(NC(=O)CCCCCC(=O)Nc4ccccc4N)cc3CC(=O)N([C@@H](C)CO)C[C@@H]2C)cc1` the AC35 was > 21 µM (inactive).
With `CC12CCC3C(CCC4(O)CC(O)CCC34C=NO)C1(O)CCC2C1=COC(=O)C1` (configuration not stated) the AC35 was 0.97 µM.
`C[C@@H]1CN([C@@H](C)CO)C(=O)Cc2cc(NC(=O)C3CCCCC3)ccc2O[C@H]1CN(C)Cc1ccc(C(=O)Nc2ccccc2N)cc1` gave an AC35 of 15.6 µM.
`C=C1C(=O)OC2C1CCC(C)C1C=CC(=O)C12C` (configuration not stated) gave an AC35 of 13.8 µM.
`C[C@@H]1CN([C@@H](C)CO)C(=O)c2cccc(NC(=O)CCCCCC(=O)Nc3ccccc3N)c2O[C@@H]1CN(C)Cc1ccc(Oc2ccccc2)cc1` showed an AC35 of 10.6 µM.
With `C=C(C(=O)c1ccccc1)C(C)C(=C)C(=O)c1ccccc1` the AC35 was 11.1 µM.
`N#CC(C#N)=C1C=CC=CN1/C(=C\c1ccco1)C(=O)c1ccc(Cl)cc1` showed an AC35 of 8.19 µM.
For `Cc1cccc(/C=C(\c2nc3ccccc3[nH]2)S(=O)(=O)c2ccccc2)c1`, the AC35 was 9.6 µM.
With `Cc1c(Cc2ccc3c(c2)OCO3)sc(NC(=O)C(C)(C)C)c1C#N` the AC35 was 13.2 µM.
With `CN(C)c1ccc(C=c2c3ccccc3n3c2c2c([n+]3C)CCCC2)cc1` the AC35 was 3.96 µM.
In the case of `CC(=O)ON=C1C=CC(=C(C#N)c2ccccc2)C=C1`, the AC35 is reported as 6.03 µM.
With `Cc1ccc(OCCNC(=O)c2cccc(S(=O)(=O)NCc3ccccc3)c2)cc1` the AC35 was 6.35 µM.
In the case of `Nc1cc2c(cc1Br)[nH]c(=O)c1ccccc12`, the AC35 is reported as 23.3 µM.
`O=C(NCc1cccnc1)C1Cc2c(-c3ccc(Cl)cc3)ccnc2O1` (configuration not stated) gave an AC35 of 13.2 µM.
For `OCC1OC(n2cnc3c(NCc4ccco4)ncnc32)C(O)C1O` (configuration not stated), the AC35 was 7.82 µM.
In the case of `O=c1[nH]c(=O)n(C2C[C@H](O)[C@@H](CO)O2)cc1C(F)(F)F` (some centres not stated), the AC35 is reported as 2.59 µM.
Work on `COC(=O)C1=C(C)N(Cc2cccc(C(F)(F)F)c2)C(=NCc2ccc(OC)cc2)NC1c1cccc(F)c1` (configuration not stated) yielded an AC35 of 10.9 µM.
In the case of `C/C(=C\c1ccccc1)C(=O)N1CCC=CC1=O`, the AC35 is reported as 13.7 µM.
Compound `C[C@@H]1CN([C@H](C)CO)C(=O)c2cc(NC(=O)CCCCCC(=O)Nc3ccccc3N)ccc2O[C@@H]1CN(C)Cc1ccc(Cl)c(Cl)c1` has an AC35 of 12.8 µM.
Compound `O=c1[nH]c(=O)n([C@H]2C[C@H](O)[C@@H](CO)O2)cc1F` has an AC35 of 0.282 µM.
`Cc1cccc(N2CCN(C3C(=O)Nc4ccccc4-n4nnnc43)CC2)c1C` (configuration not stated) was tested, and the AC35 was 13.9 µM.
Compound `C[C@@H]1CN([C@@H](C)CO)C(=O)c2cc(NS(=O)(=O)c3ccc(Cl)cc3)ccc2O[C@@H]1CN(C)Cc1ccc(C(=O)Nc2ccccc2N)cc1` has an AC35 of 12.7 µM.
For `C[C@@H]1CN([C@H](C)CO)C(=O)c2cc(NS(=O)(=O)c3ccc(Cl)cc3)ccc2O[C@@H]1CN(C)Cc1ccc(Cl)c(Cl)c1`, the AC35 was 21.5 µM.
Work on `C[C@H]1CN([C@@H](C)CO)S(=O)(=O)c2ccc(C#Cc3ccncc3)cc2O[C@@H]1CN(C)C(=O)Nc1ccc2c(c1)OCO2` yielded an AC35 of 4.14 µM.
In the case of `CN(c1ccc(NC(=O)CCc2c[nH]c3ccccc23)cc1)c1ccccn1`, the AC35 is reported as 8.74 µM.
With `COC1C(O)C(C)OC(OC2C(Oc3cccc4c(O)c5c(=O)oc6ccc(C)c7c(=O)oc(c34)c5c67)OC(C)C(O)C2O)C1O` (configuration not stated) the AC35 was 5.5 µM.
`C[C@@H]1CN([C@H](C)CO)C(=O)c2cc(C#CCN(C)C)cnc2O[C@H]1CN(C)Cc1ccc(-c2ccccc2)cc1` was tested, and the AC35 was 22.2 µM.
`C[C@H]1CN([C@@H](C)CO)C(=O)c2cc(NC(=O)C3CCCCC3)ccc2O[C@H]1CN(C)Cc1ccc(C(=O)Nc2ccccc2N)cc1` was tested, and the AC35 was 11.1 µM.
`CC1OC(OC2CC(O)C3(CO)C4C(O)CC5(C)C(C6=CC(=O)OC6)CCC5(O)C4CCC3(O)C2)C(O)C(O)C1O` (configuration not stated) was tested, and the AC35 was 0.173 µM.
With `CCCCCCCCCCCCCCCCn1cc[n+](C)c1` the AC35 was 10.2 µM.
In the case of `C[C@@H]1CN([C@@H](C)CO)C(=O)c2cccc(NS(=O)(=O)c3ccccc3)c2O[C@@H]1CN(C)Cc1ccc(C(=O)Nc2ccccc2N)cc1`, the AC35 is reported as 11.9 µM.
Compound `CCN(Cc1ccccc1)c1ccc(/C=N/N=C(N)N)cc1` has an AC35 of 15.2 µM.
`CC(=O)Oc1ccc(-c2ccc(C(=O)Nc3cccc(S(=O)(=O)N4CCOCC4)c3)cc2)cc1` was tested, and the AC35 was 3.71 µM.
`CC(=O)OC1CC(OC2C(O)CC(OC3C(O)CC(OC4CCC5(C)C(CCC6C5CCC5(C)C(C7=CC(=O)OC7)C(O)CC65O)C4)OC3C)OC2C)OC(C)C1OC1OC(CO)C(O)C(O)C1O` (configuration not stated) was tested, and the AC35 was 2.35 µM.
In the case of `N=c1ccn2c(n1)O[C@H]1[C@H](O)[C@@H](CO)O[C@H]12`, the AC35 is reported as 3 µM.
Compound `O=C1NC2C(=CC(O)C(O)C2O)c2cc3c(cc21)OCO3` (configuration not stated) has an AC35 of 3.67 µM.
Compound `COc1ccc(CCCNC(=O)C2Cc3c(-c4ccc5c(c4)OCO5)ccnc3O2)cc1` (configuration not stated) has an AC35 of 3.47 µM.
In the case of `O=C(C[C@H]1C[C@H]2c3cc(NS(=O)(=O)c4ccc(F)cc4)ccc3O[C@H]2[C@H](CO)O1)NCc1ccc(Oc2ccccc2)cc1`, the AC35 is reported as 10.8 µM.
`O=C(C[C@@H]1C[C@H]2c3cc(NS(=O)(=O)c4ccc(F)cc4)ccc3O[C@H]2[C@H](CO)O1)NCc1ccc(-c2ccccc2)cc1` showed an AC35 of 1.91 µM.
In the case of `C(=Cc1c[nH]c2ccccc12)c1ccc2ccccc2n1`, the AC35 is reported as 3.86 µM.
Compound `COC(=O)C1=C(C)N(Cc2ccccc2C(F)(F)F)C(=NCc2ccc(OC)cc2)NC1c1ccc(C(F)(F)F)cc1` (configuration not stated) has an AC35 of 13.5 µM.
`CC1(C)Oc2cc3oc(-c4cc(O)cc(O)c4)cc3cc2CC1O` (configuration not stated) was tested, and the AC35 was 12.5 µM.
`CC(C)Oc1ccc(Br)cc1C(=O)N/N=C/c1c[nH]c2ccccc12` was tested, and the AC35 was 20.1 µM.
With `COc1ccc(C(C)(O)c2nc(-c3cccc(F)c3)cs2)cc1` (configuration not stated) the AC35 was 12.8 µM.
`COc1cc(-c2coc3c(C(=O)NCc4ccc(C(F)(F)F)cc4)cccc23)ccc1O` showed an AC35 of 4.09 µM.
For `Cc1ccc(C)c(S(=O)(=O)N2CCN(c3ncnc4sccc34)CC2)c1`, the AC35 was 6.72 µM.
Compound `O=C1NC(=O)N(c2ccccc2)C(=O)/C1=C\C=C\c1ccccc1` has an AC35 of 12.6 µM.
With `CCCCC[C@H](C)N1C[C@H](COCc2ccccc2)Oc2cc(N3CC[C@@H](N(C)C)C3)ccc2S1(=O)=O` the AC35 was 14.2 µM.
With `C[C@H](CO)N1C[C@H](C)[C@@H](CN(C)Cc2ccc(C(F)(F)F)cc2)OCCCC[C@H](C)Oc2ccc(NS(=O)(=O)c3ccc(F)cc3)cc2C1=O` the AC35 was 17.3 µM.
Work on `C[C@@H]1CN([C@@H](C)CO)C(=O)c2cc(NS(=O)(=O)c3ccc(F)cc3)ccc2O[C@@H]1CN(C)Cc1ccc(C(=O)Nc2ccccc2N)cc1` yielded an AC35 of 17.5 µM.
Compound `N#C[C@H]1N[C@H](CO)[C@H]1c1ccc(C#Cc2ccc(F)cc2)cc1` has an AC35 of 18.3 µM.
In the case of `C[C@@H]1CN([C@@H](C)CO)C(=O)Cc2cc(N(C)C)ccc2O[C@H]1CN(C)Cc1ccc(C(=O)Nc2ccccc2N)cc1`, the AC35 is reported as 13.1 µM.
Compound `CC(=O)OC1CC(OC2C(O)CC(OC3C(O)CC(OC4CCC5(C)C(CCC6C5CC(O)C5(C)C(C7=CC(=O)OC7)CCC65O)C4)OC3C)OC2C)OC(C)C1OC1OC(CO)C(O)C(O)C1O` (configuration not stated) has an AC35 of 0.589 µM.
`CC1=NN(c2ccc(C)cc2)C(=O)/C1=C\C=C\c1ccccc1` was tested, and the AC35 was 18.8 µM.
